Experimental data: patent US10428080B2, “TBK/IKK inhibitor compounds and uses thereof” (Merck Patent GmbH, priority 2015, dated 2019)
pIC50: −log10 of the molar value. Structures can show the parent of a compound that is named as a salt.

How the values were obtained:
[1] = tested on: phosphorylation of the IRF-3 protein in MDA-MB-468 cells; test: pIRF3 immunocytochemistry cell based assay; settings: Homo sapiens; MDA-MB-468 cells, Poly(I:C) stimulation; read-out: pIRF3 IC50
Summary of the method: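 After 2 h stimulation with Poly(I:C) (10 ug/ml), following 1 h compound pre-treatment (10-point, 3-fold dilution, top 10 uM), MDA-MB-468 cells were fixed and stained with anti-pIRF3 antibody. pIRF3 fluorescence was normalized to PI staining or cell count on an Acumen cytometer. IC50 curves were derived from this.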

[2] = molecular target: T1, TBK1 (Homo sapiens, UniProt Q9UHD2); test: TBK Biochemical Assay; settings: read-out: TBK1 IC50
T1 sequence (Q9UHD2 1-729): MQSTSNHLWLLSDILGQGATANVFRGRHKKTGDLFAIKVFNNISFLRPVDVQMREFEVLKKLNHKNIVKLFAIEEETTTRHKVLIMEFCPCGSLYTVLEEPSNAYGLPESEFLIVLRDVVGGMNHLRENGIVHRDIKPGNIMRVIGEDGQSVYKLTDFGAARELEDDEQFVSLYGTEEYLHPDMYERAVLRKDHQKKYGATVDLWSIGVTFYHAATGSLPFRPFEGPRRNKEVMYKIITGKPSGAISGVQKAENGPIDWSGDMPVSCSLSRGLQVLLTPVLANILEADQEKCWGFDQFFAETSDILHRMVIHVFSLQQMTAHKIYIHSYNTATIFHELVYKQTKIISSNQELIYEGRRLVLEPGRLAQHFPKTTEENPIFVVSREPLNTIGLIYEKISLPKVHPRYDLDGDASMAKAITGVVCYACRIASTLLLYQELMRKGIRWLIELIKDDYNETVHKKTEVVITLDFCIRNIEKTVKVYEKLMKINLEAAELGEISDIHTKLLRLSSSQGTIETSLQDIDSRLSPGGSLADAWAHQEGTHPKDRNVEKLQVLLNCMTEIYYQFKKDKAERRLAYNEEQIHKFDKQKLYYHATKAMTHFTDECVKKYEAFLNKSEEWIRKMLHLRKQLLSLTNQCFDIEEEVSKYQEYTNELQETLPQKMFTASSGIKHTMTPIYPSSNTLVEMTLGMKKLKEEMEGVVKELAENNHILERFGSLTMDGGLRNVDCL
Summary of the method: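 Caliper LabChip mobility-shift readout of substrate and product after 90 min of TBK1 reaction at 25° C and stop-buffer addition. Compounds tested in 1:4 serial dilution over 10 points from 30 uM final at 1% DMSO; staurosporine 10 uM final defines full inhibition.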

[3] = molecular target: T2, IKKε (Homo sapiens, UniProt Q14164); test: IKKe Biochemical Assay; settings: read-out: IKKε IC50
T2 sequence (Q14164 1-716): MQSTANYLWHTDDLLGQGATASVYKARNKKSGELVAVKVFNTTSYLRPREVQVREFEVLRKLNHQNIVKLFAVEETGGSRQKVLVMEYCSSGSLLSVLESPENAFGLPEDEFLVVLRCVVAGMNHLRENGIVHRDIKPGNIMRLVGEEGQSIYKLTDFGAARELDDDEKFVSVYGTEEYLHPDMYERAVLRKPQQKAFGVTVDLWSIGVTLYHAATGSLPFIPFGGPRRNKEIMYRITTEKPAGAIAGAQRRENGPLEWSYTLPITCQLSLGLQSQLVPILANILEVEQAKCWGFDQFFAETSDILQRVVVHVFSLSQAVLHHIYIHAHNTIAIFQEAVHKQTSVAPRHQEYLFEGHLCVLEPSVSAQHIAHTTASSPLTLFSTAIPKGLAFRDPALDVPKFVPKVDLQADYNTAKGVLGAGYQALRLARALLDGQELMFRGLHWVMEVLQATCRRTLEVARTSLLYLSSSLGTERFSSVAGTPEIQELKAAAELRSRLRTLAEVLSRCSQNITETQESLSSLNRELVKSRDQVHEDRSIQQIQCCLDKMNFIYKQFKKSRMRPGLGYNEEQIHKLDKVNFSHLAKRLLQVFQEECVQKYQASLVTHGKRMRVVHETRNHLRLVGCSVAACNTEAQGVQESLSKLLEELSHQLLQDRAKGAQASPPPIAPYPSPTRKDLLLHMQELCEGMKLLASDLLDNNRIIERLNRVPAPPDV
Summary of the method: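 Activity was measured as mobility-shift separation of phosphorylated from unphosphorylated substrate on a LabChip EZ Reader. Compound was titrated from 30 uM final in 10 points, 1:4 steps, with 1% DMSO, and enzyme plus substrate reacted 90 min at 25° C before stop buffer. Control wells held 10 uM staurosporine.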

pIC50 [1]	pIC50 [2]	pIC50 [3]	Structure (SMILES)
6.00 to 7.00	> 7.00	> 7.00	COc1cc(C(=O)N(C)C)ccc1-c1cc2nccc(-c3ccc(O[C@@H]4CCNC[C@@H]4F)c(C#N)c3)c2o1 [Compound 153, 4-{7-[3-Cyano-4-((3S,4R)-3-fluoro-piperidin-4-yloxy)-phenyl]-furo[3,2-b]pyridin-2-yl}-3-methoxy-N,N-dimethyl-benzamide hydrochloride]
5.30 to 6.00	> 7.00	> 7.00	CC(=O)Nc1ccc(-c2cc3nccc(-c4ccc(OC5CCOCC5)c(C#N)c4)c3o2)cc1 [Compound 154]
6.00 to 7.00	> 7.00	> 7.00	COc1cc(C(=O)N(C)C)ccc1-c1cc2nccc(-c3ccc(OCC4CCNCC4)c(C#N)c3)c2o1 [Compound 155, 4-{7-[3-Cyano-4-(piperidin-4-ylmethoxy)-phenyl]-furo[3,2-b]pyridin-2-yl}-3-methoxy-N,N-dimethyl-benzamide]
5.30 to 6.00	> 7.00	> 7.00	CN(C)C(=O)c1ccc(-c2cc3nccc(-c4ccc(O[C@@H]5CCCOC5)c(C#N)c4)c3o2)cc1 [Compound 156, 4-(7-{3-Cyano-4-[(R)-(tetrahydro-pyran-3-yl)oxy]-phenyl}-furo[3,2-b]pyridin-2-yl)-N,N-dimethyl-benzamide]
< 5.30	6.00 to 7.00	6.00 to 7.00	CN(C)C(=O)c1ccc(-c2cc3nccc(-c4ccc(OC5(C)CCOCC5)c(C#N)c4)c3o2)cc1 [Compound 159, 4-{7-[3-Cyano-4-(4-methyl-tetrahydro-pyran-4-yloxy)-phenyl]-furo[3,2-b]pyridin-2-yl}-N,N-dimethyl-benzamide]
6.00 to 7.00	6.00 to 7.00	6.00 to 7.00	COc1cc(C(=O)N(C)C)ccc1-c1cc2nccc(-c3ccc(O[C@@H]4CCCNC4)c(C#N)c3)c2o1 [Compound 163, 4-{7-[3-Cyano-4-((R)-piperidin-3-yloxy)-phenyl]-furo[3,2-b]pyridin-2-yl}-3-methoxy-N,N-dimethyl-benzamide]
6.00 to 7.00	6.00 to 7.00	> 7.00	N#Cc1cc(-c2ccnc3cc(-c4ccc(C(=O)O)cc4)oc23)ccc1OC1CCCOC1 (stereo not drawn) [Compound 166]
5.30 to 6.00	6.00 to 7.00	6.00 to 7.00	CN(C)C(=O)c1ccc(-c2cc3nccc(-c4ccc(OC5CCOC(C)(C)C5)c(C#N)c4)c3o2)cc1 (stereo not drawn) [Compound 170, 4-{7-[3-Cyano-4-(2,2-dimethyl-tetrahydro-pyran-4-yloxy)-phenyl]-furo[3,2-b]pyridin-2-yl}-N,N-dimethyl-benzamide]
5.30 to 6.00	6.00 to 7.00	6.00 to 7.00	CN(C)C(=O)c1ccc(-c2cc3nccc(-c4ccc(N5CCC(N(C)C6CC6)C5)c(C#N)c4)c3o2)cc1 (stereo not drawn) [Compound 179, 4-(7-{3-Cyano-4-[3-(cyclopropyl-methyl-amino)-pyrrolidin-1-yl]-phenyl}-furo[3,2-b]pyridin-2-yl)-N,N-dimethyl-benzamide]

Further lines, the compound ahead of its results:

Structure (SMILES)	pIC50 [1]	pIC50 [2]	pIC50 [3]
COc1cc(C(=O)NC2CN3CCC2CC3)ccc1-c1cc2nccc(-c3ccc(N4CC[C@@H](F)C4)c(C#N)c3)c2o1 (stereo partly drawn) [Compound 146, N-(1-Aza-bicyclo[2.2.2]oct-3-yl)-4-{7-[3-cyano-4-((R)-3-fluoro-pyrrolidin-1-yl)-phenyl]-furo[3,2-b]pyridin-2-yl}-3-methoxy-benzamide]	6.00 to 7.00	> 7.00	> 7.00
N#Cc1cc(-c2ccnc3cc(-c4ccc(C(=O)N5CCC(F)(F)C5)cc4)oc23)ccc1OC1CCOCC1 [Compound 148, 5-{2-[4-(3,3-Difluoro-pyrrolidine-1-carbonyl)-phenyl]-furo[3,2-b]pyridin-7-yl}-2-(tetrahydro-pyran-4-yloxy)-benzonitrile]	5.30 to 6.00	> 7.00	> 7.00
COc1cc(C(=O)N(C)C)ccc1-c1cc2nccc(-c3ccc(OC4CCN(C)C4)c(C#N)c3)c2o1 (stereo not drawn) [Compound 149, 4-{7-[3-Cyano-4-(1-methyl-pyrrolidin-3-yloxy)-phenyl]-furo[3,2-b]pyridin-2-yl}-3-methoxy-N,N-dimethyl-benzamide]	6.00 to 7.00	> 7.00	> 7.00
COc1cc(C(=O)N(C)C)ccc1-c1cc2nccc(-c3ccc(OC4CCN(C)CC4)c(C#N)c3)c2o1 [Compound 150, 4-{7-[3-Cyano-4-(1-methyl-piperidin-4-yloxy)-phenyl]-furo[3,2-b]pyridin-2-yl}-3-methoxy-N,N-dimethyl-benzamide]	6.00 to 7.00	> 7.00	> 7.00
COc1cc(C(=O)N(C)C)ccc1-c1cc2nccc(-c3ccc(OC4CCNCC4)c(C#N)c3)c2o1 [Compound 158, 4-{7-[3-Cyano-4-(piperidin-4-yloxy)-phenyl]-furo[3,2-b]pyridin-2-yl}-3-methoxy-N,N-dimethyl-benzamide Hydrochloride]	6.00 to 7.00	6.00 to 7.00	> 7.00
CN(C)C(=O)c1ccc(-c2cc3nccc(-c4ccc(OC5CCCOC5)c(C#N)c4)c3o2)cc1 (stereo not drawn) [Compound 160]	5.30 to 6.00	6.00 to 7.00	> 7.00
COc1cc(C(=O)N(C)C)ccc1-c1cc2nccc(-c3cc(C#N)c(OC4CCOCC4)cn3)c2o1 [Compound 161, 4-{7-[4-Cyano-5-(tetrahydro-pyran-4-yloxy)-pyridin-2-yl]-furo[3,2-b]pyridin-2-yl}-3-methoxy-N,N-dimethyl-benzamide]	5.30 to 6.00	6.00 to 7.00	6.00 to 7.00
COc1ccc(-c2ccnc3cc(-c4ccc(C(=O)N(C)C)cc4)oc23)cc1C#N [Compound 167, 4-[7-(3-Cyano-4-methoxy-phenyl)-furo[3,2-b]pyridin-2-yl]-N,N-dimethyl-benzamide]	5.30 to 6.00	6.00 to 7.00	6.00 to 7.00
CN(C)C(=O)c1ccc(-c2cc3nccc(-c4ccc(OC5CC(CO)(CCl)C5)c(C#N)c4)c3o2)cc1 (stereo not drawn) [Compound 168, 4-{7-[4-(3-Chloromethyl-3-hydroxymethyl-cyclobutoxy)-3-cyano-phenyl]-furo[3,2-b]pyridin-2-yl}-N,N-dimethyl-benzamide]	6.00 to 7.00	6.00 to 7.00	6.00 to 7.00
N#Cc1cc(-c2ccnc3cc(-c4ccc(C(=O)NC5CN6CCC5CC6)cc4)oc23)ccc1OC1CCCOC1 (stereo not drawn) [Compound 171]	6.00 to 7.00	6.00 to 7.00	6.00 to 7.00
CN(C)C(=O)c1ccc(-c2cc3nccc(-c4ccc(N5CC[C@H](N(C)C)C5)c(C#N)c4)c3o2)cc1 [Compound 173, 4-{7-[3-Cyano-4-((S)-3-dimethylamino-pyrrolidin-1-yl)-phenyl]-furo[3,2-b]pyridin-2-yl}-N,N-dimethyl-benzamide]	5.30 to 6.00	6.00 to 7.00	6.00 to 7.00
CN(C)C(=O)c1ccc(-c2cc3nccc(-c4ccc(OC5CC6(COC6)C5)c(C#N)c4)c3o2)cc1 [Compound 177, 4-{7-[3-Cyano-4-(2-oxa-spiro[3.3]hept-6-yloxy)-phenyl]-furo[3,2-b]pyridin-2-yl}-N,N-dimethyl-benzamide]	5.30 to 6.00	6.00 to 7.00	6.00 to 7.00
